Source: patent US7202258B2, “α- and β-amino acid hydroxyethylamino sulfamic acid derivatives useful as retroviral protease inhibitors” (G.D. Searle & Co., priority 1992, dated 2007)
Where two headings read alike, the source gives them in different places.

Assays:
[1] = molecular target: T1, HIV protease (Human immunodeficiency virus type 1 group M subtype B, UniProt P04585); experiment: HIV protease enzyme assay (fluorescence, substrate 2-Ile-Nle-Phe(p-NO2)-Gln-ArgNH2); type: biochemical
T1 construct: HIV protease is diluted in the assay buffer to a final enzyme concentration of 12.3 nanomolar, based on a molecular weight of 10,780
Text: The compounds of the present invention are effective HIV protease inhibitors. Utilizing an enzyme assay as described below, the compounds set forth in the examples herein disclosed inhibited the HIV enzyme. The preferred compounds of the present invention and their calculated IC50 (inhibiting concentration 50%, i.e., the concentration at which the inhibitor compound reduces enzyme activity by 50%) values are shown in Table 17. The enzyme method is described below. The substrate is 2-Ile-Nle-Phe(p-NO2)-Gln-ArgNH2. The positive control is MVT-101 (Miller, M. et al, Science, 246, 1149 (1989)]The assay conditions are as follows: • Assay buffer: 20 mM sodium phosphate, […] • 20% glycerol • 1 mM EDTA • 1 mM DTT • 0.1% CHAPS
The above described substrate is dissolved in DMSO, then diluted 10 fold in assay buffer. Final substrate concentration in the assay is 80 μM.
HIV protease is diluted in the assay buffer to a final enzyme concentration of 12.3 nanomolar, based on a molecular weight of 10,780.
The final concentration of DMSO is 14% and the final concentration of glycerol is 18%. The test compound is dissolved in DMSO and diluted in DMSO to 10× the test concentration; 10 μl of the enzyme preparation is added, the materials mixed and then the mixture is incubated at ambient temperature for 15 minutes. The enzyme reaction is initiated by the addition of 40 μl of substrate. The increase in fluorescence is monitored at 4 time points (0, 8, 16 and 24 minutes) at ambient temperature. Each assay is carried out in duplicate wells.

[2] = test system: CEM cells; experiment: Intrinsic toxicity of test compound in uninfected CEM cells (MTT); type: cell-based; settings: human, 7 days
Text: Methods, 20, 309–321 (1988). […] A Frozen culture c.

[3] = test system: HIV-1; experiment: microbe, parasite or virus in culture; settings: Human immunodeficiency virus 1, CCRF-CEM, 168 h, read-out: EC50 (nm)
Experimental: Assays were performed in 96-well tissue culture plates. CEM cells, a CD4^+ cell line, were grown in RPMI-1640 medium (Gibco) supplemented with a 10% fetal calf serum and were then treated with polybrene (2 μg/ml). An 80 μl volume of medium containing 1×10^4 cells was dispensed into each well of the tissue culture plate, no each well was added a 100 μl volume of test compound dissolved in tissue culture medium (or medium without test compound as a control) to achieve the desires final concentration and the cells were incubated at 37° C. for 1 hour. […] HIV-1 was diluted in culture medium to a concentration of 5×10^4 TCID50 per ml (TCID50=the dose of virus that infects 50% of cells in tissue culture), and a 20 μL volume of the virus sample (containing 1000 TCID50 of virus) was added to wells containing test compound and to wells containing only medium (infected control cells). Several wells received culture medium without virus (uninfected control cells). Likewise, the intrinsic toxicity of the test compound was determined by adding medium without virus to several wells containing test compound.
In experiments 2 and 4 the final concentrations of test compounds were 1, 10, 100 and 500 μg/ml. Either azidothymidine (AZT) or dideoxyinosine (ddI) was included as a positive drug control. […] DMSO was added to all control wells at an appropriate concentration.
Following the addition of virus, cells were incubated at 37° C. in a humidified, 5% CO2 atmosphere for 7 days. Test compounds could be added on days 0, 2 and 5 if desired. On day 7, post-infection, the cells in each well were resuspended and a 100 μl sample of each cell suspension was removed for assay. A 20 μL volume of a 5 mg/ml solution of 3-(4,5-dimethylthiazol-2-yl)-2,5-diphenyltetrazolium bromide (MTT) was added to each 100L cell suspension, and the cells were incubated for 4 hours at 27° C. in a 5% CO2 environment. […] To each sample was added 100 μl of 10% sodium dodecylsulfate in 0.01 N HCl to lyse the cells, and samples were incubated overnight. The absorbance at 590 nm was determined for each sample using a Molecular Devices microplate reader. Absorbance values for each set of wells is compared to assess viral control infection, uninfected control cell response as well as test compound by cytotoxicity and antiviral efficacy.

[4] = Table 18, compounds of Table 1C, read-out: IC50 or % Inhibition: IC50

Compound | IC50 [1] [nM] | TD50 (nm) [2] | EC50 [3] [nM] | IC50 ([1]; Table 17, read-out: IC50) [nM] | IC50 [1, 4] [nM]
CCCCNS(=O)(=O)N(CC(C)C)C[C@@H](O)[C@H](Cc1ccccc1)NC(=O)[C@@H](NC(=O)CN(C)C)C(C)(C)C [Entry 1] | 40 | 56,000 nM | 167 | – | –
CCCCNS(=O)(=O)N(CC(C)C)C[C@@H](O)[C@H](Cc1ccccc1)NC(=O)[C@H](CC(N)=O)NC(=O)c1ccc2ccccc2n1 [Entry 2] | 5 | 65,000 nM | 23 | – | –
CC(C)CN(C[C@@H](O)[C@H](Cc1ccccc1)NC(=O)[C@H](CC(N)=O)NC(=O)c1ccc2ccccc2n1)S(=O)(=O)N1CCN(C)CC1 [Entry 3] | 3 | 28,000 nM | 42 | – | –
CC(C)CN(C[C@@H](O)[C@H](Cc1ccccc1)NC(=O)[C@H](CC(N)=O)NC(=O)c1ccc2ccccc2n1)S(=O)(=O)NC(C)(C)C [Entry 4] | 2 | 39,000 nM | < 15 | – | –
COc1ccc(COC(=O)NC[C@@H](C)C(=O)N[C@@H](Cc2ccccc2)[C@H](O)CN(CC(C)C)S(=O)(=O)NC(C)(C)C)cc1 [Entry 5] | – | – | – | 13 | –
CC(C)CN(C[C@@H](O)[C@H](Cc1ccccc1)NC(=O)OCc1ccccc1)S(=O)(=O)N1CCCCC1 [G] | – | – | – | – | 66
CC(C)(C)NS(=O)(=O)N(CC1CCCCC1)C[C@@H](O)[C@H](Cc1ccccc1)NC(=O)OCc1ccccc1 [I] | – | – | – | – | 1700
COC(=O)C(C)(C)NS(=O)(=O)N(CC(C)C)C[C@@H](O)[C@H](Cc1ccccc1)NC(=O)OCc1ccccc1 [J] | – | – | – | – | 2690
